# Reference: patent US20240391930A1, “SPIROCYCLIC BICYCLIC MODULATORS OF CHOLESTEROL BIOSYNTHESIS AND THEIR USE FOR PROMOTING REMYELINATION” (GENENTECH, INC., priority 2021, published 2024)
# What was measured:
# [1] = molecular target: T1, human emopamil binding protein and human 7-dehydrocholesterol reductase (hEBP-DHCR7) (Homo sapiens, UniProt Q15125); assay: hEBP-DHCR7 radioligand filtration binding assay; settings: membranes of HEK293 co-expressing hEBP and DHCR7; [3H] 2-thia-6-azaspiro[3.4]octane radioligand; 8 doses 0.06 to 5000 nM
# T1 construct: expressed in transfected cells; host or cells: HEK 293 cells, transient transfection with 2 DNA constructs
# Method: Membrane Preparation: human emopamil binding protein and human 7-dehydrocholesterol reductase co-expressing cells were generated by transient transfecting host human embryonic kidney (HEK) 293 cells with 2 DNA constructs containing each protein's coding sequence. Cells were suspension cultured at 37° C. with 5% CO2 in […] 293 Expression Medium (Thermofisher). Whole cell membrane was prepared by harvesting the cell pellet, adding cold membrane buffer (50 mM Tris, pH7.5, lx Roche COMPLETE EDTA-free protease inhibitor cocktail) 10 times volume of the cell pellets weight, lysing cell pellet on ice by using Dounce homogenizer, spinning at 200 g 4° C. for 15 min, collecting supernatant and spinning again at 25000 g 4° C. for 50 min, transferring pellet to Dounce homogenizer, re-suspending pellet by homogenizing in membrane buffer on ice to reach ˜25 mg/mL, then keeping whole cell membrane aliquots at −80° C.
# Compounds were prepared in a 96-well U bottom plate using an Echo550 machine and 10 mM compound DMSO stock solution, followed by an 8-dose 5-fold serial dilutions protocol with final testing compound concentration ranging from 0.06 to 5000 nM, with DMSO back fill to 100 nL/well and n=2. […] The UniFilter-96 GF/B plates were pre-treated by adding 50 µl/well of 0.3% (v/v) PEI to UniFilter-96 GF/B plates. The plates were sealed and incubated at 4° C. for 3 hrs. Then, the plates were washed with ice-cold assay buffer 3 times. The radioligand binding assay was prepared by adding assay buffer diluted hEBP-DHCR7 membrane at 66.7 μg/ml×150 l/well into the 96-well compound plate to reach 10 μg membrane per well. Then, the assay buffer diluted [3H]—((S)-6-(2-Methyl-3-(6-(trifluoromethyl)pyridin-3-yl)propyl)-2-thia-6-azaspiro[3.4]octane 2,2-dioxide or (R)-6-(2-Methyl-3-(6-(trifluoromethyl)pyridin-3-yl)propyl)-2-thia-6-azaspiro[3.4]octane 2,2-dioxide) was added at 25 nM×50 l/well. Following this, the plate was centrifuged at 1000 rpm for 30 secs. The plate was then sealed and agitated at 600 rpm at 22° C. for 5 min, and then incubated at 22° C. for 3 hrs. The incubation was stopped by transferring the binding solution to the pre-treated UniFilter-96 GF/B plate, vacuum filtrated, and then washed four times with ice-cold assay buffer. Following this, the plates were dried at 37° C. for 45 min. The plates were then sealed at the bottom. 40 µl/well of scintillation cocktail was added to the plates. A MicroBeta2 microplate counter was then used to read the plate and analyze the data. For reference and test compounds, the results are expressed as % Inhibition, using the normalization equation: N=100−100×(U−C2)/(C1−C2), where U is the unknown value, C1 is the average of high controls, and C2 is the average value of low controls. The IC50 was determined by fitting percentage of inhibition as a function of compound concentrations with Hill equation using XLfit. Results are expressed as hEBP-DHCR7 Ki (uM) in Table 4. Ki was calculated as described above; * indicates isolated isomer or isomers, but that the stereochemistry has not been assigned.
# EpiSC-derived OPCs = assay: In vitro phenotypic screening of OPCs (MBP high-content imaging); format: cell-based; settings: Mus musculus, 72 h; percentage of MBP-positive oligodendrocytes, 3 days, 0.5 nM to 1000 nM; read-out: OPC EC50
# Method: (§1) To assess effects of treatments on OPCs, all treatments were assayed in two or more independent platings of epiblast stem cell-derived OPCs (EpiSC). EpiSC-derived OPCs were obtained using in vitro differentiation protocols and culture conditions described previously (Najm et al, 2011, Nature Methods). OPCs were expanded and frozen down in aliquots. OPCs were thawed into growth conditions for at least one passage before use in further assays.
# EpiSC-derived OPCs were grown and expanded in poly-L-ornithine (PO) and laminin-coated flasks in N2B27 media (DMEM/F12 (Gibco), N2-MAX (R&D Systems), B-27 (ThermoFisher), and GlutaMax (Gibco)) supplemented with FGF2 ([…], R&D systems, 233-FB-025) and PDGF-AA ([…], R&D systems, 233-AA-050) before harvesting for experiments. The cells were seeded onto poly-L-ornithine or poly-D-lysine coated CellCarrier Ultra plates (PerkinElmer) coated with laminin (Sigma, L2020) at a density of 150,000/cm^2 in N2B27 media without growth factors. For dose-response testing, a 1000× compound stock in dimethyl sulphoxide (DMSO) was added to assay plates, resulting in 8-point dose curves with final concentrations between 1000 nM and 0.5 nM. Positive controls and DMSO vehicle controls were included in each assay plate. Cells were incubated under standard conditions (37° C., 5% CO2) for 3 days and fixed with 4% paraformaldehyde (PFA) in phosphate buffered saline (PBS) for 20 min. Fixed plates were washed with PBS, permeabilized with 0.1% Triton X-100, and blocked with 10% donkey serum (v/v) in PBS for 40 min. Then, cells were labelled with MBP antibodies (Abcam, ab7349; 1:200) for 2 h at room temperature, washed with PBS, and stained with Alexa Fluor conjugated secondary antibodies (1:500) for 45 min. Nuclei were visualized by DAPI staining (Sigma; 1 μg/ml), followed by further PBS washes.
# Cells and cell culture plates were imaged on the Operetta High Content Imaging and Analysis system (PerkinElmer). Analysis (PerkinElmer Harmony and Columbus software) began by identifying intact nuclei stained by DAPI. The peri-nuclear region of each cell was then cross-referenced with the […] (MBP) stain to identify oligodendrocyte nuclei, and from this the percentage of oligodendrocytes was calculated.
# [2] = system: zymostenol accumulation in EpiSC-derived OPCs (EBP); assay: GC/MS-based sterol profiling (zymostenol accumulation); format: cell-based; settings: Mus musculus, 24 hours, 8 doses from 0.15 nM to 333 nM, read-out: Zymostenol GCMS EC50
# Method: as §1
# Sterols were monitored using a modified Folch wash protocol (Hubler et al, 2018, Nature). EpiSC-derived OPCs were plated at 100,000 cells per well in PO- and laminin-coated 96-well plates in N2B27 media without growth factors. After 24 hours, cells were rinsed with saline and plates were frozen. Cholesterol-d7 standard was then added to each well before drying under nitrogen stream and derivatization with 55 μl of bis(trimethylsilyl) trifluoroacetamide. After derivatization, 2 μl were analyzed by gas chromatography/mass spectrometry using an Agilent 5973 Network Mass Selective Detector equipped with a 6890 gas chromatograph system and a HP-5MS capillary column (30 m×0.25 mm×[…]). Samples were analyzed in full scan mode using electron impact ionization; ion fragment peaks were integrated to calculate sterol abundance, and quantitation was relative to cholesterol-d7. The following ion fragments were used to quantitate each metabolite: cholesterol-d7 (465), FF-Mas (482), cholesterol (368), zymostenol (458), zymosterol (456), Desmosterol (456, 343), 7-dehydrocholesterol (456, 325), lanosterol (393), lathosterol (458), 14-dehydrozymostenol (456, 351). […] All standards were obtained from Avanti Polar Lipids unless otherwise indicated. Calibration curves were generated by injecting varying concentrations of sterol standards and maintaining a fixed amount of cholesterol-D7. For normalized zymostenol accumulation results, the total amount of zymostenol measured after drug treatment was divided by the total amount of zymostenol accumulated after 24 hr treatment with 100 nM positive control reference.
# T1 sequence (Q15125 whole entry): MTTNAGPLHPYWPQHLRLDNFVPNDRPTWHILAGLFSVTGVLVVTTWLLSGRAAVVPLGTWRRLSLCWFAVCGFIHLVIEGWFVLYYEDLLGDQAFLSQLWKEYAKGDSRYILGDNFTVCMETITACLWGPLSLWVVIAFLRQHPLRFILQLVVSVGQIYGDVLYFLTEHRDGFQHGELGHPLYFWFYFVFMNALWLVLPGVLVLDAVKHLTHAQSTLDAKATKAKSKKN
Structure (SMILES),Ki [1],EC50 (EpiSC-derived OPCs),EC50 [2]
"O=S1(=O)CC2(CCN([C@H]3C[C@@H]4[C@H](C3)[C@H]4c3cc(C(F)(F)F)nn3CC(F)F)CC2)C1 (single isomer, unassigned) [Compound 63*]",65.2 nM,130 nM,19 nM
"C[C@H](C(F)F)n1nc(C(F)(F)F)cc1[C@H]1[C@@H]2C[C@H](N3CCC4(CC3)CS(=O)(=O)C4)C[C@@H]21 (racemic) [Compound 71*, 7-((1R,3R,5S,6r)-6-(1-((R)-1,1-difluoropropan-2-yl)-3-(trifluoromethyl)-1H-pyrazol-5-yl)bicyclo[3.1.0]hexan-3-yl)-2-thia-7-azaspiro[3.5]nonane 2,2-dioxide and 7-((1R,3S,5S,6r)-6-(1-((S)-1,1-difluoropropan-2-yl)-3-(trifluoromethyl)-1H-pyrazol-5-yl)bicyclo[3.1.0]hexan-3-yl)-2-thia-7-azaspiro[3.5]nonane 2,2-dioxide]",17.8 nM,76 nM,17 nM
"CC(C)n1nc(-c2cccc(C(F)(F)F)c2)nc1[C@H]1[C@@H]2C[C@@H](N3CCC4(C3)CS(=O)(=O)C4)C[C@@H]21 [Compound 51, 6-((1R,3s,5S,6r)-6-(1-Isopropyl-3-(3-(trifluoromethyl)phenyl)-1H-1,2,4-triazol-5-yl)bicyclo[3.1.0]hexan-3-yl)-2-thia-6-azaspiro[3.4]octane 2,2-dioxide]",11.7 nM,37 nM,6.4 nM
"CC(C)n1nc(C2CCC(F)(F)CC2)cc1[C@H]1[C@@H]2C[C@@H](N3CCC4(C3)CS(=O)(=O)C4)C[C@@H]21 [Compound 108, 6-((1R,3s,5S,6r)-6-(3-(4,4-Difluorocyclohexyl)-1-isopropyl-1H-pyrazol-5-yl)bicyclo[3.1.0]hexan-3-yl)-2-thia-6-azaspiro[3.4]octane 2,2-dioxide]",21.6 nM,102 nM,10.6 nM
"CC(C)n1nc([C@H]2CC[C@H](C(F)(F)F)CC2)cc1[C@H]1[C@@H]2C[C@@H](N3CCC4(C3)CS(=O)(=O)C4)C[C@@H]21 (single isomer, unassigned) [Compound 107]",16 nM,52.5 nM,7.59 nM
"CC(C)n1nc(-c2ccc(C(F)(F)F)nc2)cc1[C@H]1[C@@H]2C[C@H](N3CCC4(C3)CS(=O)(=O)C4)C[C@@H]21 (single isomer, unassigned) [Compound 14]",13 nM,2.9 nM,2 nM
"CCn1nc(-c2cncc(F)c2)cc1[C@H]1[C@@H]2C[C@H](N3CCC4(C3)CS(=O)(=O)C4)C[C@@H]21 (single isomer, unassigned) [Compound 69*]",34.3 nM,27 nM,4.4 nM
"CC(C)n1nc([C@H]2CC[C@](O)(C(F)(F)F)CC2)cc1[C@H]1[C@@H]2C[C@@H](N3CCC4(C3)CS(=O)(=O)C4)C[C@@H]21 (single isomer, unassigned) [Compound 104*]",164 nM,175 nM,25.8 nM
"O=S1(=O)CC2(CCN([C@@H]3C[C@@H]4[C@H](C3)[C@H]4c3cc(C(F)(F)F)nn3CC(F)F)C2)C1 (single isomer, unassigned) [Compound 90*]",70.5 nM,190 nM,21 nM
"CC(C)n1nc(-c2cncc(OC(F)F)c2)cc1[C@H]1[C@@H]2C[C@@H](N3CCC4(CC3)CS(=O)(=O)C4)C[C@@H]21 (single isomer, unassigned) [Compound 45*]",131 nM,14 nM,8.1 nM
"CC(C)n1nc(-c2cncc(C(F)(F)F)c2)cc1[C@H]1[C@@H]2C[C@@H](N3CCC4(C3)CS(=O)(=O)C4)C[C@@H]21 (single isomer, unassigned) [Compound 3]",16.2 nM,34 nM,3.9 nM
"CC(C)n1nc(-c2cncc(C(F)(F)F)c2)cc1[C@H]1[C@@H]2C[C@@H](N3CC[C@]4(CCS(=O)(=O)C4)C3)C[C@@H]21 (single isomer, unassigned) [Compound 8*]",18.1 nM,2.5 nM,3.6 nM
